Assay results: ChEMBL document CHEMBL1201862, “PubChem BioAssay data set” (2004)
Calls of active or inactive are those of the source.

How the values were obtained:
[1] = target: T1, Sentrin-specific protease 1 (Homo sapiens, UniProt Q9P0U3); assay: Dose response confirmation of small molecule inhibitors of the catalytic domain of the SUMO protease, SENP1 in a FRET assay.; assay type: functional; conditions: read-out: IC50_Mean
[2] = target: T2, Endoribonuclease toxin MazF (Escherichia coli K-12, UniProt P0AE70); assay: fluorescent RNA oligo signal without MazF, dose response, counter-screen for MazEF activator project, biochemical, fluorescence, single-stranded RNase substrate (AID 588502); assay type: functional
T2 sequence (P0AE70 whole entry): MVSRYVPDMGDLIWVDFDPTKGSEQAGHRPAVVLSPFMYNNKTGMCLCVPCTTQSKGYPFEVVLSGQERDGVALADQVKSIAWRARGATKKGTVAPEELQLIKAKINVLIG

[3] = target: T1, Sentrin-specific protease 1; assay: potency of human SENP1 inhibitors, dose response, biochemical, kinetic FRET (AID 651697); assay type: functional; conditions: read-out: IC50_Mean
[4] = target: T3, RNA-binding protein pos-1 (Caenorhabditis elegans, UniProt G5EF15); assay: inhibitors of POS-1/mex-3 RNA binding, dose response, biochemical, fluorescence polarization (AID 1964);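 further: purified POS-1 fused to maltose binding protein made in E. coli; potency of compounds blocking POS-1 binding to fluorescent RNA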
T3 sequence (G5EF15 whole entry): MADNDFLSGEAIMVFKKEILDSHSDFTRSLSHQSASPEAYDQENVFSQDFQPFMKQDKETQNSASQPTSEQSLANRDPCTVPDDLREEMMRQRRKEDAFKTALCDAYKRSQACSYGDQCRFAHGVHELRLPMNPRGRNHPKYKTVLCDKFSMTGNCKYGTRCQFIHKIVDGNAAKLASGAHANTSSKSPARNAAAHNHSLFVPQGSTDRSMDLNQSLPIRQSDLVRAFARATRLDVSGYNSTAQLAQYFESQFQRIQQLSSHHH

[5] = target: T2, Endoribonuclease toxin MazF; assay: MazF toxin RNase activators, dose response, biochemical, fluorescence, single-stranded RNA substrate, uHTS hits (AID 588481); assay type: functional
[6] = target: T4, Zinc finger protein mex-5 (Caenorhabditis elegans, UniProt Q9XUB2); assay: MEX-5/TCR-2 RNA interaction inhibitors, dose response, biochemical, C. elegans, fluorescence polarization (AID 1960)
T4 sequence (Q9XUB2 whole entry): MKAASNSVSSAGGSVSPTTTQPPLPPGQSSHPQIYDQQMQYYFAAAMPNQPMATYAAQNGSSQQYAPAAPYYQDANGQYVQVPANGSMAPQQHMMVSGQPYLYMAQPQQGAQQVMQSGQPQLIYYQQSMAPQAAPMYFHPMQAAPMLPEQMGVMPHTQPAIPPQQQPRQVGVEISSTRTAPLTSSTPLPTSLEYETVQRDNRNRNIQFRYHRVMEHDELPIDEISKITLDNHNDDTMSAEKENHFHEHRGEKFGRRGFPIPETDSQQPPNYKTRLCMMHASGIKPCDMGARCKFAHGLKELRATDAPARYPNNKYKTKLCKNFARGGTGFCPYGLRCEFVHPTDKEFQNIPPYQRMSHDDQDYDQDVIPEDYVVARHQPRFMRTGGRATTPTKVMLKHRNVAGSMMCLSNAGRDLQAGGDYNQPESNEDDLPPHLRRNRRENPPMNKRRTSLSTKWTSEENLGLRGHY

[7] = target: ATP-dependent translocase ABCB1 (Homo sapiens, UniProt P08183); assay: ABCB1 efflux pump inhibitor potency, dose response, Jurkat-DNR cells, JC-1, flow cytometry (AID 1689); assay type: functional
Chain of ATP-dependent translocase ABCB1 (P08183 whole entry): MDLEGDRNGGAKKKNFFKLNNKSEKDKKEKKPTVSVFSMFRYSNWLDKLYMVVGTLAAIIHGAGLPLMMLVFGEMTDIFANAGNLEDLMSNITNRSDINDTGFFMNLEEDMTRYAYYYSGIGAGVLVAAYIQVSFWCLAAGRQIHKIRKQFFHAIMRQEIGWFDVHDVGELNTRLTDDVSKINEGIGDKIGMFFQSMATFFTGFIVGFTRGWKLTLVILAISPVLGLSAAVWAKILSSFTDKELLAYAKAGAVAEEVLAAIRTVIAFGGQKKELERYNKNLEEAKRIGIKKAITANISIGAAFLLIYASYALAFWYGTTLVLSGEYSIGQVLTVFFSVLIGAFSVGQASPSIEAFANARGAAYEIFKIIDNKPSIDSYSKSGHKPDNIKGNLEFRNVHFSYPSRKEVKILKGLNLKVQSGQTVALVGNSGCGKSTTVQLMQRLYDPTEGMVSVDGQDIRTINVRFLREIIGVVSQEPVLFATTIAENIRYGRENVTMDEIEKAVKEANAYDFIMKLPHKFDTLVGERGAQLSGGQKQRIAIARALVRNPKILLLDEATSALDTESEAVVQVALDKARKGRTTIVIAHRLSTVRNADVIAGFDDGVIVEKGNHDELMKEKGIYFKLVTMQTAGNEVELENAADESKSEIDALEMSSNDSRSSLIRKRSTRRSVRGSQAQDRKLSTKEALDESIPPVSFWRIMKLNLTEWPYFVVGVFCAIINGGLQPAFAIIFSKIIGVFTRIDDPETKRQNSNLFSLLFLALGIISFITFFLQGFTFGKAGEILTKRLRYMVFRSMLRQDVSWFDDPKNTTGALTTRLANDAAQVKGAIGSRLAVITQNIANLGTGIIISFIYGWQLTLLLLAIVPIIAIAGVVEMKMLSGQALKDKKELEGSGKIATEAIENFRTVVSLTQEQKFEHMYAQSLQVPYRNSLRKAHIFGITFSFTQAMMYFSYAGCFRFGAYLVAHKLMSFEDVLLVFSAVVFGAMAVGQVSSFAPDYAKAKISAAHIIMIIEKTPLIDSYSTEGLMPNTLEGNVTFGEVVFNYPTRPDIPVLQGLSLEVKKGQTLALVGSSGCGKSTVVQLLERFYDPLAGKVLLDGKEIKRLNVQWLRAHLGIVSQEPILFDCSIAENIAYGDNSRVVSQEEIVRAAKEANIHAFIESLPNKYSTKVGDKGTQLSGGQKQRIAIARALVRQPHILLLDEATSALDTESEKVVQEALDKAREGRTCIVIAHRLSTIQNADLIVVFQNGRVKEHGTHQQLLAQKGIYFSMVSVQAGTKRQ

[8] = target: Broad substrate specificity ATP-binding cassette transporter ABCG2 (Homo sapiens, UniProt Q9UNQ0); assay: ABCG2 efflux pump inhibitors, dose response, Ig-MXP3 cells, flow cytometry (AID 1690); assay type: functional
Chain of Broad substrate specificity ATP-binding cassette transporter ABCG2 (Q9UNQ0 whole entry): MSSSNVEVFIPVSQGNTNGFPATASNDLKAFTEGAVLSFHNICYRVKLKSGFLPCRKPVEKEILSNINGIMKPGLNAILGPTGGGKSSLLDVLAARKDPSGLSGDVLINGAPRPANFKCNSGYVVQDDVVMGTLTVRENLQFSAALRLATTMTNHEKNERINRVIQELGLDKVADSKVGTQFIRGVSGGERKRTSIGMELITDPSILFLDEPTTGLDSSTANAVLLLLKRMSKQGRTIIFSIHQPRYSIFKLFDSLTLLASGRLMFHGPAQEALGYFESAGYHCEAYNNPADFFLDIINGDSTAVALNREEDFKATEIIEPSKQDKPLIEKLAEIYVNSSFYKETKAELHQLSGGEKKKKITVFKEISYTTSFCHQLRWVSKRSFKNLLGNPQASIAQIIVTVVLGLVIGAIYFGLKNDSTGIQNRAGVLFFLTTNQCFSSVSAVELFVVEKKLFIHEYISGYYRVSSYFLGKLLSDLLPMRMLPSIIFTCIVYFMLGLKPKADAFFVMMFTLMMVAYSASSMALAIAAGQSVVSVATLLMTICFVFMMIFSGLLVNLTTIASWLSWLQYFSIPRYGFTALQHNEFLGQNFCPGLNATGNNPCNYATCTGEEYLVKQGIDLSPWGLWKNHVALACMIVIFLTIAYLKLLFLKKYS

Beta-lactamase [9] = target: T5, Beta-lactamase (Pseudomonas aeruginosa, UniProt Q79MP6); assay: […] counterscreen for selective VIM-2 inhibitors: dose response biochemical high throughput screening assay to identify inhibitors of IMP-1 metallo-beta-lactamase.
T5 sequence (Q79MP6 whole entry): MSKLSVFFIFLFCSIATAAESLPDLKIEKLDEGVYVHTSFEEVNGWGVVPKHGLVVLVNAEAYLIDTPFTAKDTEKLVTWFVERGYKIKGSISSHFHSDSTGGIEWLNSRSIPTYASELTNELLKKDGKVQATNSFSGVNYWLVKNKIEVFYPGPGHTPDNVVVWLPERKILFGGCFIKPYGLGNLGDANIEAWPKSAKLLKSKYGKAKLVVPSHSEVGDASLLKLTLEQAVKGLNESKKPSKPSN

Beta-lactamase [10] = target: Beta-lactamase (Salmonella choleraesuis (strain SC-B67), UniProt Q5J463); assay: Epi-absorbance-based counterscreen for selective VIM-2 inhibitors: dose response biochemical high throughput screening assay to identify inhibitors of TEM-1 serine-beta-lactamase.
Chain of Beta-lactamase (Salmonella choleraesuis (strain SC-B67), UniProt Q5J463) (Q5J463 whole entry): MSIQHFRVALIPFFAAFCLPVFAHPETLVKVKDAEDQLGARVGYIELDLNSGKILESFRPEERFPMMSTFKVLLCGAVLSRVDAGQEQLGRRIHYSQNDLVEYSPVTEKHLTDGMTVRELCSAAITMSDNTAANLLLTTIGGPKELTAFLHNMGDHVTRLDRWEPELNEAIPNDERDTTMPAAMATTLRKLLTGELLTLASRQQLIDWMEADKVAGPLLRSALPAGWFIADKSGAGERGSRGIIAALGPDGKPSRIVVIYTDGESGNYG

Beta-lactamase [11] = target: T5, Beta-lactamase; assay: IMP-1 metallo-beta-lactamase inhibitors, dose response, selectivity assay for VIM-2 inhibitor project, biochemical, epi-absorbance (AID 1920)
[12] = target: 5-hydroxytryptamine receptor 2A (Mus musculus, UniProt P35363); assay type: functional, cell-based;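 further: CHO-K1 cells with tagged receptor and beta-arrestin; agonist potency measured as compound-induced activation of the receptor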
Chain of 5-hydroxytryptamine receptor 2A (P35363 whole entry): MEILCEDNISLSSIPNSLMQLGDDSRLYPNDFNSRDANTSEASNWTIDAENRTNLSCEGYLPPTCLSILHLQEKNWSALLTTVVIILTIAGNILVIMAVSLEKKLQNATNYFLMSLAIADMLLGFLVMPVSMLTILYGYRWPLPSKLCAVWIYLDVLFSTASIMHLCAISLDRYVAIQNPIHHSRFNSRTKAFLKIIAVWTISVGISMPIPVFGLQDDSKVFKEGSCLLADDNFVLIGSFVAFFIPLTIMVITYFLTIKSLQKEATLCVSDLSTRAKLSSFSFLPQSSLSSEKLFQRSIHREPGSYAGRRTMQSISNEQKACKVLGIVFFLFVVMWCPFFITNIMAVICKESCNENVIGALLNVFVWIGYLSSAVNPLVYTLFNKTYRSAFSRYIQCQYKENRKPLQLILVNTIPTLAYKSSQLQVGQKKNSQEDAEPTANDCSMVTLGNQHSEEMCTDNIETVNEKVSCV

Mu-type opioid receptor = Mu-type opioid receptor (Homo sapiens, UniProt P35372); assay type: functional, cell-based;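 further: U2OS cells with beta-arrestin recruitment to OPRM1 by beta-gal complementation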
Chain of Mu-type opioid receptor (P35372 whole entry): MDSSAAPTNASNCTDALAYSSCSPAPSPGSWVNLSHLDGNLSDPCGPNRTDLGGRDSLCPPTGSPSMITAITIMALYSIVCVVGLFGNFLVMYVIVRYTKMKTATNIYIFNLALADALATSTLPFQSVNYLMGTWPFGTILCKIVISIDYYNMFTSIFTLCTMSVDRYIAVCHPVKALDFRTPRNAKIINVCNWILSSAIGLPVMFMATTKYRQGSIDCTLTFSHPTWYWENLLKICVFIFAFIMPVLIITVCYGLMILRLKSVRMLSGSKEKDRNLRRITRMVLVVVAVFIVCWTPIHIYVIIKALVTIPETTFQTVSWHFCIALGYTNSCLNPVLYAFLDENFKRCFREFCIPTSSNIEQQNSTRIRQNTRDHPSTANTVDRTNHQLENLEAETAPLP

[13] = target: T6, Low molecular weight phosphotyrosine protein phosphatase (Homo sapiens, UniProt P24666); assay type: functional; conditions: read-out: IC50_Mean
T6 sequence (P24666 whole entry): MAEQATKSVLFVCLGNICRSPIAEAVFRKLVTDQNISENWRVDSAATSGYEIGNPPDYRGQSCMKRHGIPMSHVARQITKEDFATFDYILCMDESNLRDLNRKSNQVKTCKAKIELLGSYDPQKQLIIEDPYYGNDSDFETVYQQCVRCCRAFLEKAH

[14] = target: T7, Sentrin-specific protease 7 (Homo sapiens, UniProt Q9BQF6); assay type: functional;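 further: Luminescence-based dose-response confirmation of ultra-high-throughput screening hits, measuring inhibition of SENP7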
T7 sequence (Q9BQF6 whole entry): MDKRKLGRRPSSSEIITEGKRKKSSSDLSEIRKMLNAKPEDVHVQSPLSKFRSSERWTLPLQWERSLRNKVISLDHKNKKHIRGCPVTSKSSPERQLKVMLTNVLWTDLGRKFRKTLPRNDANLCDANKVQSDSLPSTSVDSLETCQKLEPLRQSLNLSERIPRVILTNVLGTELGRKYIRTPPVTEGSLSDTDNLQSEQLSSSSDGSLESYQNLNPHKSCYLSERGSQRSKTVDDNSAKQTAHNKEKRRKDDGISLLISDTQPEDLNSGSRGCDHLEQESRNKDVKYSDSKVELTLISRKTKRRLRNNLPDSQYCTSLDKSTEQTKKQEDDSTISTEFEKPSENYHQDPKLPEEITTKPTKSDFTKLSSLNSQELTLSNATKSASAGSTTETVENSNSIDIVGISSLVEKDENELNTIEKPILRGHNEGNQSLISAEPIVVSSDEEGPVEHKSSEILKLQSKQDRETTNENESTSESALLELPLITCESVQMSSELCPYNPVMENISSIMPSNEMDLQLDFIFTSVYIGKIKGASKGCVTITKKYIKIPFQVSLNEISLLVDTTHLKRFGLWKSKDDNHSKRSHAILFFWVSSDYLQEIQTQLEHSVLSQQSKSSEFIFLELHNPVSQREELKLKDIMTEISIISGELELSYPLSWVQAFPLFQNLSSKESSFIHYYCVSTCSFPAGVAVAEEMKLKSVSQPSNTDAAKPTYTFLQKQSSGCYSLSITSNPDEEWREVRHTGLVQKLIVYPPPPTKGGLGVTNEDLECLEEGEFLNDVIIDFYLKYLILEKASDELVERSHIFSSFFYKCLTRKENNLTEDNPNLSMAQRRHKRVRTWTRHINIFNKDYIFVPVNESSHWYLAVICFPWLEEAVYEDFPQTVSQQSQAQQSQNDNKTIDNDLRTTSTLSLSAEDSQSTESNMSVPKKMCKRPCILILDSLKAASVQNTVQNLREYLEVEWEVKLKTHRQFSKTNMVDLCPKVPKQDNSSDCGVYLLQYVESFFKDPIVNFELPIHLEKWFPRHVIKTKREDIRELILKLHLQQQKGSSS

Caspase-3 = target: T8, Caspase-3 (Homo sapiens, UniProt P42574); assay type: functional;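 further: Dose-response selectivity test against caspase-3 for candidate inhibitors of sentrin-specific proteases (SENPs)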
T8 sequence (P42574 whole entry): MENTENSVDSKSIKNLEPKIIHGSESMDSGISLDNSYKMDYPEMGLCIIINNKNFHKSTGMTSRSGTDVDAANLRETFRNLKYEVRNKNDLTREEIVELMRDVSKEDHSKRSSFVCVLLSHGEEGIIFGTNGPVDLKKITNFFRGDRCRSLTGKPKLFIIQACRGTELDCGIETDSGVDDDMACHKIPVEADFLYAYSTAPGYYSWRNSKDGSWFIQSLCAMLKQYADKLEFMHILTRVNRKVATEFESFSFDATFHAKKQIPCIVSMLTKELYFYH

[15] = target: T9, Sentrin-specific protease 8 (Homo sapiens, UniProt Q96LD8); assay type: functional;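 further: luminescence read-out of SENP8 inhibition, dose-response confirmation following an ultra-high-throughput screen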
T9 sequence (Q96LD8 whole entry): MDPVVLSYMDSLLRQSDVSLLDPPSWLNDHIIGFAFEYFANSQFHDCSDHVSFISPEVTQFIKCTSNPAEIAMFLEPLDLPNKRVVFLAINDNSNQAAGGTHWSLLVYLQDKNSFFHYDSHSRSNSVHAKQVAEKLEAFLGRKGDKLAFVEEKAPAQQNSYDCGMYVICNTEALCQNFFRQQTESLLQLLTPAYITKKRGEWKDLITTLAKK

[16] = target: T10, Tyrosine-protein phosphatase non-receptor type 22 (Homo sapiens, UniProt Q9Y2R2); assay: LYP phosphatase inhibition for selectivity, dose response, selectivity assay for LMPTP inhibitor project, biochemical, fluorescence, LYP catalytic domain (AID 652006); assay type: functional; conditions: read-out: IC50_Mean
T10 sequence (Q9Y2R2 whole entry): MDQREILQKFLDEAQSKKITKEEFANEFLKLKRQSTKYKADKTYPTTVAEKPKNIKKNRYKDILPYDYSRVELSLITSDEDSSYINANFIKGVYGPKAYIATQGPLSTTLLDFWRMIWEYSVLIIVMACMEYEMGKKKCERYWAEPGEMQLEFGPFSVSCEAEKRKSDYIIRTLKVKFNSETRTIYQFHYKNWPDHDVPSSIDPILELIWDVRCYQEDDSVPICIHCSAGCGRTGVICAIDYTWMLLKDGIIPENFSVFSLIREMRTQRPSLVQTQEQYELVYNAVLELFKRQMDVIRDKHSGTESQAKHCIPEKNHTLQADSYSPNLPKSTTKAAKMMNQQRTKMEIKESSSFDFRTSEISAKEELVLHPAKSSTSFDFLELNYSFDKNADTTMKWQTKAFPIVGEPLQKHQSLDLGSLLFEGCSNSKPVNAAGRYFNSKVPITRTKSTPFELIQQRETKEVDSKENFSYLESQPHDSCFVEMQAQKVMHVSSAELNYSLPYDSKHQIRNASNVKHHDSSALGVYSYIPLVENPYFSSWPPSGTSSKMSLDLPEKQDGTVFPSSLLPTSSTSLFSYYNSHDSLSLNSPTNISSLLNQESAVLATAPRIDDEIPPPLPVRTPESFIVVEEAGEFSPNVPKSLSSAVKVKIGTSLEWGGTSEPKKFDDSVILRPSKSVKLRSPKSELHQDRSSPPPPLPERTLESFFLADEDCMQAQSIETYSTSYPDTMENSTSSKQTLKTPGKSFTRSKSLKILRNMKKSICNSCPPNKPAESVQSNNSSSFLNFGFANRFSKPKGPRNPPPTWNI

[17] = target: T6, Low molecular weight phosphotyrosine protein phosphatase; assay type: functional; conditions: read-out: IC50_Mean; remark: listed apart in the source
[18] = target: T11, Sentrin-specific protease 6 (Homo sapiens, UniProt Q9GZR1); assay type: functional;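 further: Luminescence-based dose-response confirmatory assay of SENP6 inhibition, following up an ultra-high-throughput screen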
T11 sequence (Q9GZR1 whole entry): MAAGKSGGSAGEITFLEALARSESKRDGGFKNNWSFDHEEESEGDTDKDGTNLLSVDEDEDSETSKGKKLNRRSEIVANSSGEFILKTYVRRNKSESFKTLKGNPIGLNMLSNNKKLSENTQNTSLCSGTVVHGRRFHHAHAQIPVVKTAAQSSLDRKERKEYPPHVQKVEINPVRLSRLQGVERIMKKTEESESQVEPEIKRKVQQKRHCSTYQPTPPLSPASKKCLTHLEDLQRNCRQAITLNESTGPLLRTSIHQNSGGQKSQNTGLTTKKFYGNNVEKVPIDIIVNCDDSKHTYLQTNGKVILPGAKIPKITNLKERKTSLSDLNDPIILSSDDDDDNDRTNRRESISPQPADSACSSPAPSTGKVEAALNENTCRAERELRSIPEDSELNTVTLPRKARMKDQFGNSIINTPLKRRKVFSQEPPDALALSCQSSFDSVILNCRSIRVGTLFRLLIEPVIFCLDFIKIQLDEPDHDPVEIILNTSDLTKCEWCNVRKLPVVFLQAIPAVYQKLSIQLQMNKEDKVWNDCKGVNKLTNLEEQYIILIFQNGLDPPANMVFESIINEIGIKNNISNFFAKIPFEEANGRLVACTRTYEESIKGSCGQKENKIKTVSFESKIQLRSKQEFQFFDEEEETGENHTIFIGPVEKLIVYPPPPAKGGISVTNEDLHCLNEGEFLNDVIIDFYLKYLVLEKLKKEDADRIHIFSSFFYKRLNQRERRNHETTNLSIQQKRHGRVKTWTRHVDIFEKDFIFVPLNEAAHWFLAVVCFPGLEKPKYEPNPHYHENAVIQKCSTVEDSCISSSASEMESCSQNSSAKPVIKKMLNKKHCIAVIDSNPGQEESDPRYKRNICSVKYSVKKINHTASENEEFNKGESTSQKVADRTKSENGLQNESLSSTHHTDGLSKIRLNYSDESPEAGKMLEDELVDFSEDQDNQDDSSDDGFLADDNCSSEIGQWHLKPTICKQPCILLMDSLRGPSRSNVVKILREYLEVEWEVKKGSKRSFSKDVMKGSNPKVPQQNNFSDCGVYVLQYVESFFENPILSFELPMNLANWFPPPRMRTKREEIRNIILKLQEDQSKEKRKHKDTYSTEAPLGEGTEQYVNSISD

T1 sequence (Q9P0U3 whole entry, the tested form may be a part): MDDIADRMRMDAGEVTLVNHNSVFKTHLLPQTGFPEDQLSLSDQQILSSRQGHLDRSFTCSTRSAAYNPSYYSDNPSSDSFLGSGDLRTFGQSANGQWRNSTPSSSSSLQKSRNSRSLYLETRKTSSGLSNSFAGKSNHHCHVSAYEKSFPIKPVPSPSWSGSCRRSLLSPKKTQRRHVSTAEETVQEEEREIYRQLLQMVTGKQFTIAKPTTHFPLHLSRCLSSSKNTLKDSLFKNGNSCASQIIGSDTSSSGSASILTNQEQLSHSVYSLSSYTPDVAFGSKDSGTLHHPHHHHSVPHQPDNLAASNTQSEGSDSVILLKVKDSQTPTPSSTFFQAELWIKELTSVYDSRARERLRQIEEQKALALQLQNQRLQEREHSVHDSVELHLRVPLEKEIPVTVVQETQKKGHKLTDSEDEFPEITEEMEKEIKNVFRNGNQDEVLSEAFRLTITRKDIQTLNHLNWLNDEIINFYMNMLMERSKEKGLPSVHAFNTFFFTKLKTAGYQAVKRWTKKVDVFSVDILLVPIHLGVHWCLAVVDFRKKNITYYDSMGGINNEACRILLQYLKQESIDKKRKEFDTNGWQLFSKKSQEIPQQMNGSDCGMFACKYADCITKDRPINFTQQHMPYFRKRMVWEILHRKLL

`COc1ccc2c(c1)c1nc3ccccc3nc1n2Cc1ccc(OC)c(OC)c1` was tested, and the IC50 [1] was 6.84 µM (active), the EC50 [2] was 87.9 µM (inactive) and the IC50 [3] was 14.1 µM (active). For the same compound, the EC50 [4] was 32.6 µM (active), the EC50 [5] was > 99 µM (inactive) and the EC50 [6] was 43.1 µM (active).
For `N#Cc1ccc(-c2ccc(OCC(=O)NCCc3ccccc3)cc2)cc1`, the EC50 [7] was 11.1 µM (inactive) and the EC50 [8] was 3.76 µM (active).
`CC1=C(C(=O)O)N2C(=O)C(NC(=O)c3nn(C)cc3[N+](=O)[O-])C2SC1` (stereo not given) was tested, and the IC50 (Beta-lactamase [9]) was > 59.6 µM (inactive), the IC50 (Beta-lactamase [10]) was > 59.6 µM (inactive) and the IC50 (Beta-lactamase [11]) was > 59.6 µM (inactive).
For `O=C(C1CCN(CCCc2ccccc2)CC1)N1CCCCC1`, the EC50 [12] was 76.1 µM (inactive) and the EC50 (Mu-type opioid receptor) was 92.5 µM (inactive).
In the case of `O=C(/C=C/c1ccc(Br)cc1)NC(=O)c1ccccc1O`, the IC50 [13] is reported as 22.2 µM (inactive), the IC50 [14] is reported as 8.1 µM (active) and the IC50 (Caspase-3) is reported as > 100 µM (inactive). The IC50 [15] was 26.9 µM (active), the IC50 [16] was 43.6 µM (inactive) and the IC50 [17] was 9.98 µM (active). For the same compound, the IC50 [18] was 15.2 µM (active).
